Assay results published in patent publication US12403139B2, “Methods and compositions for prevention and treatment of cardiac hypertrophy” (University of Hawaii, priority 2010, dated 2025).

What was measured:
WT mice exposed to TAC [1] = assay: Histological analysis of the heart 36 days post TAC (WGA-Alexa488 and picrosirius red staining); assay type: in vivo; details: BCTC treated TAC mice vs vehicle treated TAC mice
Experimental: Tissue preparation for histology. […] For histology, hearts were perfused with phosphate-buffered saline and 10% formalin in situ, collected immediately, and fixed overnight in 10% formalin at 4° C. Tissues were then cut in a sagittal orientation, embedded in paraffin, mounted on glass slides, and stored until use. Paraffin-embedded sections were stained for the following:
Collagen: Collagen volume fraction was determined by analysis of picrosirius stained sections. Sections cut to 5 μm thickness were deparaffinized, stained with Weigert's hematoxylin, then stained with picrosirius red (0.1% Sirius Red in picric acid). Sections were subsequently washed and dehydrated before image analysis.
Cardiomyocyte cross sectional area: Heart sections were deparaffinized and permeabilized, then stained with wheat germ-agglutinin conjugated to Alexa488 (WGA-Alexa488, Invitrogen, W11261) at a concentration of 50 μg/mL to identify sarcolemmal membranes and measure cardiomyocyte cross sectional area (described below).
Image collection and analysis. […] Fibrosis and cross-sectional cardiomyocyte area were quantified using ImageJ software (NIH). To quantify fibrosis, collagen fibers were highlighted, and the red-stained pixels were counted to determine the percentage of pixels in each field that represented collagen fibers. […]

WT mice exposed to TAC [2] = assay: Pressure overload cardiac hypertrophy by transverse aortic constriction (TAC): heart weight and echocardiography; assay type: in vivo
Experimental: Transverse Aortic Constriction (TAC). Transverse aortic constriction was performed as described by Rockman, producing left ventricular hypertrophy by constriction of the aorta (Rockman et al., 1994; Rockman et al., 1991). The left side of the chest was depilated with Nair and a baseline 2-D echocardiogram was obtained. Mice were then deeply anesthetized with a mixture of ketamine and xylazine. The transverse aorta between the brachiocephalic and left carotid artery was banded using 6-0 silk ligature around the vessel and a 26 G blunt needle, after which the needle was withdrawn. Sham surgeries were identical apart from the constriction of the aorta.
Transthoracic echocardiography. Baseline and post TAC transthoracic echocardiography were used to assess changes in mouse heart dimensions and function. Briefly, after two days of acclimatization and depilation, unanesthetized transthoracic echocardiography was performed using a 30-Mhz transducer (Vevo 770, VisualSonics). High quality two-dimensional images and M-mode images of the left ventricle were recorded. Measurements of left ventricular end-diastolic (LVIDd) and end-systolic (LVIDs) internal dimensions were performed by the leading edge to leading edge convention adopted by the American Society of Echocardiography. The left ventricular ejection fraction (% EF) was calculated as (LV Vol; d-LV Vol; s/LV Vol; d×100) (Visualsonics Inc.).
Osmotic pump installation. Long term (up to 42 day) infusion of drugs can be accomplished by insertion of osmotic pumps without the need for repeated injection. Mice are placed under a low plane of anesthesia with an injection of Ketamine/Xylazine anesthetic (50 mg/10 mg·Kg) intraperitoneally (IP) 10 minutes prior to surgery. A small area between shoulder blades is shaved and sterilized with Povidine swab. A small incision is made in this area and blunt dissected below skin to allow placement of an Alzet osmotic pump (model 2006), previously loaded with the drug of choice under the skin between the shoulder blades where it is inaccessible to the mouse. Several stitches are applied to close the incision. The mouse is placed in regular housing on a warming mat until completely conscious, after which mice are then returned to regular housing room.
The mice were subjected to pressure overload induced cardiac hypertrophy by TAC while administered 4 mg/kg of BCTC (in 20% wt/vol 2-Hydroxypropyl)-β-cyclodextrin/PBS) throughout the entire experiment using osmotic pumps (Alzet, Model 2006) pumping continuously at a rate of 0.15 ul/hr. The test was limited to ˜42 days (max) by the function of the pumps, as such the experiment was halted at 36 days post TAC, as pumps are installed previous to the TAC to allow recovery before the TAC surgery. […] This protection from dilation of the left ventricle translates to a protection in the function of the heart as measured by ejection fraction (% EF, p<0.05) and fractional shortening (% FS).

Q: For `CC(C)(C)c1ccc(NC(=O)N2CCN(c3ncccc3Cl)CC2)cc1` [BCTC, N-(4-tertiarybutylphenyl)-4-(3-chloropyridin-2-yl)tetrahydropyrazine-1(2H)-carboxamide], which “cardiomyocyte cross sectional area” value (WT mice exposed to TAC [1]; p=<0.01, n=100 (FIG. 9A)) is on record?
A: significantly smaller myocytes in BCTC treated TAC mice than vehicle treated TAC control mice

Q: And the “interstitial collagen (area of collagen staining as a percentage of tissue area)” value (WT mice exposed to TAC [1]; picrosirius red, p=0.05 (FIG. 9B))?
A: significantly less interstitial collagen in BCTC treated TAC mice than vehicle treated TAC control mice

Q: What about the “fractional shortening (% FS)” value (WT mice exposed to TAC [2]; TAC mice, 4 mg/kg BCTC by osmotic pump, 36 days post TAC, vs vehicle, p<0.01 (FIG. 8E)) of the same molecule?
A: significantly diminished at 36 days post TAC compared to drug-treated mice

Q: What about the “ejection fraction (% EF)” value (WT mice exposed to TAC [2]; TAC mice, 4 mg/kg BCTC by osmotic pump, 36 days post TAC, vs vehicle, p<0.05 (FIG. 8D)) of the same molecule?
A: significantly diminished at 36 days post TAC compared to drug-treated mice

Q: And the “heart weight/body weight ratio” value (WT mice exposed to TAC [2]; TAC mice, 4 mg/kg BCTC by osmotic pump, 36 days post TAC, vs vehicle, p=0.035 (FIG. 8A))?
A: significantly greater in vehicle treated WT mice than drug treated mice

Q: And the “left ventricular internal diameter end-diastolic (LVIDd), TAC mice” value (WT mice exposed to TAC [2]; TAC mice, 4 mg/kg BCTC by osmotic pump, zero to 36 days, vs vehicle, significantly different after 18 days, p<0.001 (FIG. 8C))?
A: significantly smaller LVIDd than the vehicle treated TAC mice

Q: And the “LVIDd over time in TAC mice” value (WT mice exposed to TAC [2]; TAC mice, 4 mg/kg BCTC by osmotic pump, vehicle mice start increasing diameter at 9 days)?
A: the diameter is maintained for the duration of the test

Q: And the “left ventricular internal diameter (LVID,d), sham mice” value (WT mice exposed to TAC [2]; sham mice, BCTC vs vehicle, echocardiography every 9 days (FIG. 8B))?
A: no difference
